Laboratory results taken from patent publication US11844844B2, “Fusion protein comprising glutathione-s-transferase and protein having binding affinity target cell or target protein, and use thereof” (UNIST(ULSAN NATIONAL INSTITUTE OF SCIENCE AND TECHNOLOGY), priority 2017, dated 2023).

System: RAW 264.7 cells
Test: Cytotoxicity against macrophage, alamar blue
Type: cell-based
Details: CPT 0.01 to 2.5 μg/ml, 48 hr; PCSNs stored in 55% FBS 1 hr
Protocol: In detail, CPT-loaded HER2-PCSNs were prepared and stored in a high concentration of serum protein environment of 55% FBS for 1 hr. Thereafter, the stored HER2-PCSNs were collected and washed, and then treated to RAW 264.7 cells at a CPT concentration of 0.01 μg/ml, 0.1 μg/ml, 0.25 μg/ml, 0.5 μg/ml, 1.0 μg/ml, or 2.5 μg/ml, followed by incubation for 48 hr. After completing incubation, cell viability was examined using an alamar blue dye. As a control for comparison of the cell killing effect, RAW 264.7 cells were treated with free CPT which was not loaded in nanoparticles, and cell viability thereof was examined.

CC[C@@]1(O)C(=O)OCc2c1cc1n(c2=O)Cc2cc3ccccc3nc2-1 [free CPT, camptothecin]
cell killing effect on macrophages (cell viability): exhibited the cell killing effect on RAW 264.7 cells with increasing treatment concentrations
